Experiment [1] relates to Human umbilical vein endothelial cells (HUVEC). Kind of experiment: Apoptosis of HUVEC by FACS analysis after 7AAD staining. Type of experiment: cell-based. Conditions: 5 to 30 μM, 24 to 96 h; FIG. 13. How it is done: Human umbilical vein endothelial cells were treated with Seq.
HUVEC cells were incubated for 24 to 96 h with 5 or 30 μM of peptide Seq. ID n 5, control peptide, or left untreated. Apoptosis was characterized by FACS analysis after 7AAD staining. A. Dose-response versus control peptide. B. Increasing incubation times with or without 10 μM peptides and staining with 7AAD and detection by FACS analysis.
In general terms: Flow cytometry measures light scatter and fluorescence of single cells or particles in a stream.

A further experiment has as its system HeLa cells. The experiment can be described thus: Apoptosis of HeLa cells by fluorescent microscopy or FACS. The class given is cell-based, human. Conditions: 5 or 10 μM, 24 or 48 h. How it is done:
Characterization of apoptosis induced on cultured human cells by treatment with MMP inducing peptides. The example shown relates to peptide seq. ID no 3 […]. […] The peptide was then tested on cell: the HeLa cells in exponential growth phase were treated with peptide or mock treated, then analyzed by fluorescent microscopy or FACS to ascertain apoptosis.
Caspase-3 activation was performed using a fluorescent inhibitor of caspase-3 (FLICA, FAM-DEVD-FMK) from the CaspaTag™ kit (Intergen). The loss of plasma membrane integrity occurring during apoptosis of HeLa cells was determined by 7-Amino Actinomycin D. (7-AAD) incorporation (SIGMA). […] 7-AAD was added to cells at 37° C. for 15 min. Cells were trypsinized, resuspended in PBS and immediately acquired on the FACSCalibur. FAM-DEVD-FMK related fluorescence was detected using the Fl-1 channel. 7-AAD fluorescence was collected in the Fl-3 channel (>650 nm).
HeLa cells were stained by […] for 15 minutes and observe d using a DM IRB inverted fluorescence microscope (Leica).
HeLa cells were incubated for 24 or 48 h with 5 or 10 μM of peptide Seq. ID no 3 or left untreated. A. Cells were then stained with JC-1 and Hoechst dyes. […] B. Fluorescence microscopy of the cells, after 24 hours incubation with or without 5 μM peptide and staining with JC-1 dye. […]

Experiment [2] deals with purified mouse liver mitochondria. The class given is biochemical. To be noted: FIG. 9A. How it is done:
Liver mitochondria were isolated from 3-4 weeks old Balb-c mice (IFFA CREDO, Saint Germain sur l'Arbresle, France). Animals were fasted overnight before being killed by […] dislocation. Liver mitochondria were prepared as described (Jacotot, 2000). All steps were carried out at 4° C. Finally, the organelles were resuspended in ‘swelling buffer’, composed by 200 mM sucrose, 5 mM succinate, 10 mM Tris-MOPS (pH 7.4), 1 mM H3PO4, 2 μM Rotenone, and 10 μM EGTA at pH=7.4. Spectrophotometric and flow cytometric analyses were performed in this buffer. The protein content of isolated mitochondria was determined by the Bradford assay.
Large amplitude swelling was determined with Ultrospec 3300 pro […] (Amersham Pharmacia Bioech, Cambridge, England) by measuring Absorbance at 545 nm (A545) (Bernardi et al., 1992). […] Basal absorbance was recorded for 4 minutes, MPP-inducing reagents were added to samples and large amplitude swelling was monitored by the decrease in absorbance for the following 16 minutes. Data were recorded using the Data capture software (Excel, Uppsala, Sweden). […] Percentages of specific swelling were calculated as follows: (ACa2+−AReagent)×100/(ACa2+−Ainit) were ACa2+, AReagent and Ainit correspond to the absorbance value obtained for CaCl2-treated, reagent-treated and pre-treated mitochondria respectively.

A further experiment concerns isolated mitochondria. Kind of experiment: Cytochrome C release from isolated mitochondria by western blot on the supernatant. Type of experiment: biochemical, mouse. Conditions: 10 μM peptide, 30 minutes; FIG. 9B. As to the method:
B. Cytochrome C release: untreated mitochondria (1), or treated with 5 μM Alamethicin (2) or 10 μM peptide seq. ID No 2 during 30 minutes were assayed for cytochrome C release by western blot on the supernatant.
In general terms: A western blot detects proteins with antibodies after separation by electrophoresis.

Positions of bridges follow the written chain, without caps; N, C: chain ends. No end group written: not given here.

On to “GG*CRGDMFG*CGGLLFIHFRIGSRHSRIG (GGCRGDMFGCGGLLFIHFRIGSRHSRIG; disulfide 3-10) [SEQ ID N^o 5]”, for which, in experiment [1], the “apoptosis of HUVEC (in words)” value is “apoptosis induction”.

Regarding “RKKRRQRRRCGGLETRTETWMSSEGAWKQIQKVETWALRH [SEQ ID N^o 3]”, the “apoptosis of HeLa cells (in words)” value in the experiment on HeLa cells was “induction of apoptosis in a dose and time related effect”. Moreover, the “specific swelling of isolated mitochondria (in words)” value in experiment [2] is “dose-dependant specific swelling”. The “release of Cytochrome C from isolated mitochondria” value in the experiment on isolated mitochondria is recorded as “release of Cytochrome C”.

These data come from patent publication US20080199899A1, “Method For Screening Modulators of Mitochondrial Functioning and New Modulators Obtained” (priority 2002, published 2008).
